Measured values taken from article PMC11477194, “3-Alkoxy-1-Benzyl-5-Nitroindazole Derivatives Are Potent Antileishmanial Compounds” (International Journal of Molecular Sciences, 2024).
Like-named read-outs stand apart in the source and are kept apart here.

Tests used:
[1] = tested on: L. amazonensis intracellular amastigotes; assay: Intracellular amastigote assay, L. amazonensis; type: cell-based; conditions: read-out: EC50 ± SD
Text: (§1) The strains used in this research were MHOM/BR/77/LTB0016 of L. amazonensis from the Pedro Kouri Institute of Tropical Medicine Cuba strains collection, MHOM/FR/78/LEM75 of L. infantum from the Department of Parasitology, Faculty of Pharmacy of the Complutense University of Madrid Spain, and MNYC/BZ/62/M379 of L. mexicana from the Laboratory of Molecular Immunobiochemistry and Heart Diseases UNAM-INC Mexico Research Unit. The parasites were obtained from the skin lesions of previously infected BALB/c mice and maintained at 26 °C in Schneider medium (SIGMA, St. Louis, MO, USA) and supplemented with antibiotics (penicillin sodium 200 IU/mL and streptomycin 200 μg/mL SIGMA, St. Louis, MO, USA) and 10% fetal bovine serum (FBS, SIGMA, St. Louis, MO, USA), and inactivated with heat (56 °C, 30 min). The promastigotes, once isolated, were kept in the exponential multiplication phase by successive subcultures every 3 or 4 days until the time of use.
(§2) Intracellular amastigote assay: Macrophages were seeded in 96-well plates at an initial density of 10^5 cells/mL in a final volume of 200 µL per well. After 2 h of incubation at 33 °C and 5% CO2, the cell monolayer was infected with a culture of promastigotes in the stationary phase of growth at a ratio of 10:1 (promastigotes: macrophages) and incubated under the same conditions for 4 h. The compounds were tested in serial dilutions of 1/2.5 (15–0.02 μM). The treated cultures were then incubated for 48 h under similar conditions. After incubation, the RPMI medium was removed and replaced with Schneider’s medium. Cultures were incubated for 72 h at 26 °C to allow the surviving amastigotes to transform into promastigotes and replicate.
(§3) Every concentration of the test compounds was assessed in quadruplicate.
(§4) Cell viability was assessed using the resazurin transformation method. After the incubation period, 20 μL of 3 mM resazurin solution prepared in sterile PBS was added to each well. Reading was performed at 540 nm excitation and 590 nm emission wavelengths after 8 h of incubation in a 96-well plate reader (SUMA®, Habana, Cuba). The mean fluorescence intensity was calculated for each concentration. From the mean values of fluorescence and the corresponding product concentrations, a non-linear fit to the Emax sigmoid model was performed, and the mean inhibitory concentrations (IC50), mean effective concentrations (EC50), and the mean cytotoxic concentration (CC50) were estimated. The selectivity index was calculated as SIp = CC50/IC50 and SIa = CC50/EC50 for the promastigote and amastigote stages, respectively.

[2] = tested on: L. infantum intracellular amastigotes; assay: Intracellular amastigote assay, L. infantum; type: cell-based; conditions: read-out: EC50 ± SD
Text: as §1, §2, §3, §4

[3] = tested on: L. infantum promastigotes; assay: Susceptibility assay in promastigotes, L. infantum; type: cell-based; conditions: 72 h, read-out: IC50 ± SD
Text: as §1
(§5) Susceptibility assay in promastigotes: Promastigotes culture in the exponential growth phase were seeded in 96-well plates (10^6 parasites/mL) at a final volume of 200 μL/well. Compounds were tested in serial 1/2.5 dilutions (130–0.2 μM). The treated cultures were incubated for 72 h at 26 °C.
as §3, §4

[4] = Cytotoxicity in mouse peritoneal macrophages (resazurin); type: cell-based; conditions: concentration that causes lysis of 50% of BALB/c mouse peritoneal macrophages
Experimental: To obtain peritoneal macrophages, the mice were sacrificed by cervical dislocation, and the resident cells in the peritoneum were extracted by washing with RPMI (Roswell Park Memorial Institute, Buffalo, NY, USA) medium and cold (4 °C) supplemented with 10% FBS and antibiotics (sodium penicillin 200 IU/mL and streptomycin 200 μg/mL). Cell concentration was calculated using Neubauer chamber counts in an optical microscope (Motic, Xiamen, China) with a 40× objective and 10× eyepieces (400× magnification).
Cytotoxicity in mouse peritoneal macrophages: Peritoneal macrophages were adjusted to 10^5 macrophages/mL, and 200 μL was seeded per well in a 96-well plate and incubated at 33 °C and 5% CO2 for 2 h. Subsequently, the non-attached cells were discarded, and the monolayer was washed with PBS. The compounds were tested in serial dilutions of 1/2.5 (650–1.0 μM). The treated cultures were incubated for 48 h at 33 °C in a humidified atmosphere containing 5% CO2.
as §3, §4

[5] = tested on: L. amazonensis promastigotes; assay: Susceptibility assay in promastigotes, L. amazonensis; type: cell-based; conditions: 72 h, read-out: IC50 ± SD
Text: as §1, §5, §3, §4

[6] = tested on: L. mexicana promastigotes; assay: Susceptibility assay in promastigotes, L. mexicana; type: cell-based; conditions: 72 h
Text: as §1, §5, §3, §4

[7] = tested on: L. mexicana intracellular amastigotes; assay: Intracellular amastigote assay, L. mexicana; type: cell-based; conditions: Leishmania mexicana, read-out: EC50 ± SD, intracellular amastigotes, L. mexicana
Text: as §1, §2, §3, §4

[8] = tested on: promastigotes of L. amazonensis; assay: Scanning and transmission electron microscopy of treated promastigotes; type: cell-based
Text: The concentrations of compounds selected for the study of structural and ultrastructural damage were those corresponding to IC50, ½ IC50, and ¼ IC50 for compound NV8 (reported in this study) and the previously reported compound VATR 131 [21]. The procedure for the treatment of cultures was the same as that described above for the in vitro tests on promastigotes of L. amazonensis. Two negative controls were used: a DMSO-treated culture (0.1%) and an untreated culture.
At the end of the exposure to the compounds, the parasites were washed once with PBS and immediately fixed with 2.5% glutaraldehyde in PBS for 1 h at room temperature. After a thorough wash with PBS, the parasites were fixed with 1% OsO4 in PBS at 4 °C for 1 h and then washed with PBS. The parasites were dehydrated in increasing concentrations of ethanol. Drying was carried out at the critical point of CO2 in a Samdry 780 apparatus (USA). Next, they were evaporated with gold in a Denton Vacuum Desk (USA). Finally, the samples were observed and micrographed using a JSM 6510LB-JEOL microscope at 30 keV.
Promastigotes were washed with PBS and fixed with 2.5% glutaraldehyde solution for 1 h at 4 °C. They were then fixed with a solution of 1% OsO4 in the same buffer at 4 °C and in darkness for 1 h. Promastigotes were washed with PBS at RT and dehydrated in an ethanolic solution in increasing order by up to 100%. They were then included in the epoxy resin using specific molds for polymerization and maintained at 60 °C for a minimum period of 72 h. The blocks were cut with an ultramicrotome (Reichert Jung, Austria) into thin sections. The slices were stained with uranyl acetate and lead citrate and subsequently micrographed using a JEM 1400 transmission electron microscope (JEOL, Ltd., Tokyo, Japan).

Leishmania spp. [9] = assay: Antileishmanial activity, species not separated (pooled statement or literature); type: cell-based; conditions: all Leishmania species; active = IC50 ≤ 1 μM and SI ≥ 10
Leishmania spp. [10] = conditions: promastigote stage, drug used in the clinic; cited from earlier work
[11] = tested on: amastigotes of L. amazonensis; conditions: cited from earlier work
[12] = Leishmania mexicana, read-out: IC50 ± SD, promastigotes, L. mexicana, 72 h
[13] = Leishmania amazonensis, intracellular amastigotes, L. amazonensis
[14] = Leishmania infantum, intracellular amastigotes, L. infantum
[15] = intracellular amastigotes, L. infantum
[16] = Leishmania infantum, promastigotes, L. infantum
[17] = BALB/c, mouse, peritoneal macrophages
[18] = Leishmania amazonensis, promastigotes, L. amazonensis

| SMILES | IC50 [6, 12] [µM] | EC50 [7] [µM] | EC50 [2, 14] [µM] | IC50 [3, 16] [µM] | CC50 at 48 h [4, 17] [µM] | IC50 [5, 18] [µM] | other results |
| --- | --- | --- | --- | --- | --- | --- | --- |
| C[C@@H]1[C@H](O)[C@@H](C)/C=C/C=C/C=C/C=C/C=C/C=C/C=C/[C@H](O[C@@H]2O[C@H](C)[C@@H](O)[C@H](N)[C@@H]2O)C[C@@H]2O[C@](O)(C[C@@H](O)C[C@@H](O)[C@H](O)CC[C@@H](O)C[C@@H](O)CC(=O)O[C@H]1C)C[C@H](O)[C@H]2C(=O)O [AmB, Amphotericin B, reference compound] | 0.046 ± 0.012 | 0.036 ± 0.008 | – | – | – | – | EC50 ([1]; Leishmania amazonensis): 0.034 ± 0.006 µM; EC50 ([2]; Leishmania infantum): 0.6 ± 0.21 µM; IC50 ([3]; Leishmania infantum): 0.28 ± 0.01 µM; CC50 at 48 h [4]: 5.8 ± 0.5 µM; IC50 ([5]; Leishmania amazonensis): 0.03 ± 0.01 µM |
| CN(C)CCOc1nn(Cc2ccccc2)c2ccc([N+](=O)[O-])cc12 [NV4] | 2.3 ± 0.4 | – | ≤ 5 | ≤ 1 | 67.1 ± 8.9 | – | EC50 [1, 13]: 12.3 ± 0.7 µM; EC50 [2, 15]: 3.42 ± 1.8 µM; IC50 ([3]; promastigotes, L. infantum): 0.52 ± 0.05 µM |
| CN(C)CCCOc1nn(Cc2ccccc2)c2ccc([N+](=O)[O-])cc12 [NV6] | – | – | ≤ 5 | ≤ 1 | 61 ± 6.9 | – | EC50 [2, 15]: 3.79 ± 1.46 µM; IC50 ([3]; promastigotes, L. infantum): 0.69 ± 0.063 µM |
| O=[N+]([O-])c1ccc2c(c1)c(OCCN1CCCCC1)nn2Cc1ccccc1 [NV7] | – | 3.1 ± 1.05 | 12.8 ± 0.13 | – | 24.4 ± 6.7 | – | EC50 [1, 13]: 5.61 ± 0.69 µM |
| O=[N+]([O-])c1ccc2c(c1)c(OCCCN1CCCCC1)nn2Cc1ccccc1 [NV8] | – | – | – | – | 23.2 ± 5 | – | Structural damage, scanning electron microscopy ([8]; L. amazonensis promastigotes treated at IC50, ½ IC50, ¼ IC50): the bodies were completely swollen and spheroidal in appearance; Ultrastructural damage, transmission electron microscopy ([8]; L. amazonensis promastigotes, 72 h of incubation at IC50, ½ IC50, ¼ IC50): most of the parasites are atypical; many are swollen or deformed and present large cytosolic vacuoles |
| NCCCOc1nn(Cc2ccccc2)c2ccc([N+](=O)[O-])cc12 [NV9] | 2.8 ± 3 | – | 9.71 ± 0.4 | ≤ 1 | 47.9 ± 10.4 | ≤ 1 | IC50 ([3]; promastigotes, L. infantum): 0.59 ± 0.16 µM; IC50 ([5]; promastigotes, L. amazonensis): 0.81 ± 0.17 µM |
| NCCOc1nn(Cc2ccccc2)c2ccc([N+](=O)[O-])cc12 [NV10] | 4.5 ± 0.5 | – | – | ≤ 1 | 46.7 ± 7.7 | ≤ 1 | EC50 [1, 13]: ≤ 5 µM; EC50 ([1]; intracellular amastigotes, L. amazonensis): 4.35 ± 0.9 µM; IC50 ([3]; promastigotes, L. infantum): 0.93 ± 0.27 µM; IC50 ([5]; promastigotes, L. amazonensis): 0.99 ± 0.14 µM |
| O=[N+]([O-])c1ccc2c(c1)c(OCCBr)nn2Cc1ccccc1 [NV11] | 9.38 ± 0.13 | – | – | 20.4 ± 1.3 | – | 20.7 ± 1.38 | Classification against promastigotes (Leishmania spp. [9]): inactive |
| O=[N+]([O-])c1ccc2c(c1)c(OCCCCCBr)nn2Cc1ccccc1 [NV12] | 2.8 ± 1.1 | – | – | 32.96 ± 0.25 | – | 2.88 ± 1.47 | Classification against promastigotes (Leishmania spp. [9]): inactive |
| CNCCOc1nn(Cc2ccccc2)c2ccc([N+](=O)[O-])cc12 [NV13] | – | 11.6 ± 0.7 | 16.2 ± 0.54 | – | 61.4 ± 9.4 | ≤ 1 | EC50 [1, 13]: 5.66 ± 0.53 µM; IC50 ([5]; promastigotes, L. amazonensis): 0.82 ± 0.27 µM |
| CN(C)CCCCCOc1nn(Cc2ccccc2)c2ccc([N+](=O)[O-])cc12 [NV14] | – | 8.2 ± 0.2 | – | 0.93 ± 0.18 | 2.5 ± 0.7 | 0.5 ± 0.22 | – |
| CNCCCCCOc1nn(Cc2ccccc2)c2ccc([N+](=O)[O-])cc12 [NV15] | – | 1.53 ± 0.13 | – | 1.27 ± 0.06 | 5.6 ± 2.5 | 1.88 ± 1.34 | – |
| O=[N+]([O-])c1ccc2c(c1)c(OCCCCCN1CCCCC1)nn2Cc1ccccc1 [NV16] | ≤ 1 | 4.29 ± 0.48 | – | 1.41 ± 0.03 | 21.1 ± 7.1 | – | IC50 ([6]; read-out: IC50 ± SD, promastigotes, L. mexicana): 0.5 ± 0.1 µM |
| NCCCCCOc1nn(Cc2ccccc2)c2ccc([N+](=O)[O-])cc12 [NV17] | 2.9 ± 0.1 | – | 11.8 ± 1.04 | – | 7.74 ± 3 | 1.01 ± 0.39 | – |
| CCCCCCCCCCCCCCCCOP(=O)([O-])OCC[N+](C)(C)C [miltefosine] | – | – | – | – | – | – | IC50 (Leishmania spp. [10]): 50.7 µM |
| N=C(N)c1ccc(OCCCCCOc2ccc(C(=N)N)cc2)cc1 [pentamidine] | – | – | – | – | – | – | IC50 (Leishmania spp. [10]): 30 µM |
| c1ccc2ncccc2c1 [quinoline] | – | – | – | – | – | – | EC50 [11]: 0.54 µM |
| C[C@@H](c1nc(-c2ccc(C#N)cc2)cs1)[C@](O)(Cn1cncn1)c1ccc(F)cc1F [ravuconazole] | – | – | – | – | – | – | EC50 [11]: 5.11 µM |
